In ChEMBL document CHEMBL4321785, “Challenges and Opportunities for Therapeutics Targeting the Voltage-Gated Sodium Channel Isoform NaV1.7” (J Med Chem, 2019):

Key:
[1] = Ratio of unbound plasma concentration in mouse model of formalin-induced pain to Kd for binding affinity to mouse Nav1.7 by radioligand binding assay; type: ADME; details: in vivo
[2] = Ratio of unbound plasma concentration in mouse model of CFA-induced cold allodynia to Kd for binding affinity to mouse Nav1.7 by radioligand binding assay; type: ADME; details: in vivo
Homo sapiens [3] = species: Homo sapiens; test: Selectivity ratio of Kd for binding affinity to human recombinant Nav1.6 by radioligand binding assay to Kd for binding affinity to human recombinant Nav1.7 by radioligand binding assay
Homo sapiens [4] = species: Homo sapiens; test: Selectivity ratio of Kd for binding affinity to human recombinant Nav1.3 by radioligand binding assay to Kd for binding affinity to human recombinant Nav1.7 by radioligand binding assay
Homo sapiens [5] = species: Homo sapiens; test: Selectivity ratio of Kd for binding affinity to human recombinant Nav1.5 by radioligand binding assay to Kd for binding affinity to human recombinant Nav1.7 by radioligand binding assay
[6] = Ratio of plasma concentration in mouse model of capsaicin-induced pain at 60 mg/kg, po during von Frey test to IC50 for inhibition of mouse Nav1.7 expressed in HEK293 cells by electrophysiology assay; type: organism-based; details: in vivo
Homo sapiens [7] = species: Homo sapiens; test: Selectivity ratio of Kd for binding affinity to human recombinant Nav1.4 by radioligand binding assay to Kd for binding affinity to human recombinant Nav1.7 by radioligand binding assay
[8] = target: Sodium channel protein type 10 subunit alpha (Mus musculus, UniProt Q6QIY3); test: Binding affinity to mouse Nav1.8 […] by radioligand binding assay
[9] = Ratio of plasma concentration in mouse model of pain at 60 mg/kg, po during Randall-Selitto test to IC50 for inhibition of mouse Nav1.7 expressed in HEK293 cells by electrophysiology assay; type: organism-based; details: in vivo
Homo sapiens [10] = species: Homo sapiens; test: Selectivity ratio of Kd for binding affinity to human recombinant Nav1.1 by radioligand binding assay to Kd for binding affinity to human recombinant Nav1.7 by radioligand binding assay
[11] = Ratio of unbound plasma concentration in mouse model of SNI-induced pain to Kd for binding affinity to mouse Nav1.7 by radioligand binding assay; type: ADME; details: in vivo
[12] = target: T1, Sodium channel protein type 5 subunit alpha (Homo sapiens, UniProt Q14524); test: Binding affinity to human recombinant Nav1.5 by radioligand binding assay
[13] = target: T2, Sodium channel protein type 2 subunit alpha (Homo sapiens, UniProt Q99250); test: Binding affinity to human recombinant Nav1.2 by radioligand binding assay
[14] = target: T3, Sodium channel protein type 3 subunit alpha (Homo sapiens, UniProt Q9NY46); test: Binding affinity to human recombinant Nav1.3 by radioligand binding assay
[15] = Ratio of unbound plasma concentration in mouse model of STZ-induced pain measured on day 1 to Kd for binding affinity to mouse Nav1.7 by radioligand binding assay; type: ADME; details: in vivo
[16] = Plasma concentration in mouse model of CFA-induced pain at 60 mg/kg, po during Hargreaves test; type: ADME, organism-based; details: in vivo
[17] = Plasma concentration in mouse model of pain at 60 mg/kg, po during tail immersion test; type: ADME, organism-based; details: in vivo
[18] = target: T4, Sodium channel protein type 1 subunit alpha (Homo sapiens, UniProt P35498); test: Binding affinity to human recombinant Nav1.1 by radioligand binding assay
[19] = Ratio of unbound plasma concentration in mouse model of inherited erythromelalgia to Kd for binding affinity to recombinant human Nav1.7 by radioligand binding assay; type: ADME; details: in vivo
[20] = Ratio of plasma concentration in mouse model of CFA-induced pain at 60 mg/kg, po during Hargreaves test to IC50 for inhibition of mouse Nav1.7 expressed in HEK293 cells by electrophysiology assay; type: organism-based; details: in vivo
[21] = Plasma concentration in mouse model of pain at 60 mg/kg, po during Randall-Selitto test; type: ADME, organism-based; details: in vivo
[22] = target: T5, Sodium channel protein type 8 subunit alpha (Homo sapiens, UniProt Q9UQD0); test: Binding affinity to human recombinant Nav1.6 by radioligand binding assay
[23] = Unbound fraction in mouse plasma; type: ADME, cell-free
[24] = Plasma concentration in mouse model of capsaicin-induced pain at 60 mg/kg, po during von Frey test; type: ADME, organism-based; details: in vivo
Homo sapiens [25] = species: Homo sapiens; test: Selectivity ratio of Kd for binding affinity to human recombinant Nav1.2 by radioligand binding assay to Kd for binding affinity to human recombinant Nav1.7 by radioligand binding assay
[26] = Plasma concentration in mouse model of pain at 60 mg/kg, po during hot plate test; type: ADME, organism-based; details: in vivo
[27] = target: T6, Sodium channel protein type 4 subunit alpha (Homo sapiens, UniProt P35499); test: Binding affinity to human recombinant Nav1.4 by radioligand binding assay
[28] = target: Sodium channel protein type 9 subunit alpha (Mus musculus, UniProt Q62205); test: Binding affinity to mouse Nav1.7 by radioligand binding assay
[29] = Ratio of plasma concentration in mouse model of pain at 60 mg/kg, po during hot plate test to IC50 for inhibition of mouse Nav1.7 expressed in HEK293 cells by electrophysiology assay; type: organism-based; details: in vivo
[30] = Ratio of plasma concentration in mouse model of pain at 60 mg/kg, po during tail immersion test to IC50 for inhibition of mouse Nav1.7 expressed in HEK293 cells by electrophysiology assay; type: organism-based; details: in vivo
[31] = target: T6, Sodium channel protein type 4 subunit alpha; test: Inhibition of human Nav1.4 expressed in HEK293 cells by electrophysiology assay; type: cell-based
[32] = target: T3, Sodium channel protein type 3 subunit alpha; test: Inhibition of human Nav1.3 expressed in HEK293 cells by electrophysiology assay; type: cell-based
[33] = target: T5, Sodium channel protein type 8 subunit alpha; test: Inhibition of human Nav1.6 expressed in HEK293 cells by electrophysiology assay; type: cell-based
[34] = target: T2, Sodium channel protein type 2 subunit alpha; test: Inhibition of human Nav1.2 expressed in HEK293 cells by electrophysiology assay; type: cell-based
[35] = target: T1, Sodium channel protein type 5 subunit alpha; test: Inhibition of human Nav1.5 expressed in HEK293 cells by electrophysiology assay; type: cell-based
[36] = target: T4, Sodium channel protein type 1 subunit alpha; test: Inhibition of human Nav1.1 expressed in HEK293 cells by electrophysiology assay; type: cell-based
Rattus norvegicus [37] = test: Analgesic activity in it dosed rat model of CFA-induced pain by Hargreaves test; type: functional
Rattus norvegicus [38] = test: Analgesic activity in it dosed rat model of formalin-induced pain; type: functional
Rattus norvegicus [39] = test: Analgesic activity in it dosed rat model of CFA-induced pain; type: functional
Rattus norvegicus [40] = test: Analgesic activity in iv dosed rat model of CFA-induced pain; type: functional
[41] = target: Sodium channel protein type 9 subunit alpha (Rattus norvegicus, UniProt O08562); test: Inhibition of rat Nav1.7 expressed in HEK293 cells by electrophysiology assay; type: cell-based
Homo sapiens [42] = species: Homo sapiens; test: Selectivity index, ratio of IC50 for inhibition of human Nav1.1 expressed in HEK293 cells by electrophysiology assay to IC50 for inhibition of human Nav1.7 expressed in HEK293 cells by electrophysiology assay; type: cell-based
Homo sapiens [43] = species: Homo sapiens; test: Selectivity index, ratio of IC50 for inhibition of human Nav1.2 expressed in HEK293 cells by electrophysiology assay to IC50 for inhibition of human Nav1.7 expressed in HEK293 cells by electrophysiology assay; type: cell-based
Homo sapiens [44] = species: Homo sapiens; test: Selectivity index, ratio of IC50 for inhibition of human Nav1.6 expressed in HEK293 cells by electrophysiology assay to IC50 for inhibition of human Nav1.7 expressed in HEK293 cells by electrophysiology assay; type: cell-based
Homo sapiens [45] = species: Homo sapiens; test: Selectivity index, ratio of IC50 for inhibition of human Nav1.5 expressed in HEK293 cells by electrophysiology assay to IC50 for inhibition of human Nav1.7 expressed in HEK293 cells by electrophysiology assay; type: cell-based
[46] = Ratio of unbound plasma concentration in mouse model of inherited erythromelalgia to IC50 for inhibition of human Nav1.7 expressed in HEK293 cells by electrophysiology assay; type: cell-based
[47] = Ratio of unbound plasma concentration in mouse model of formalin-induced pain to IC50 for inhibition of mouse Nav1.7 expressed in HEK293 cells by electrophysiology assay; type: cell-based
[48] = target: Sodium channel protein type 9 subunit alpha (Homo sapiens, UniProt Q15858); test: Inhibition of human Nav1.7 expressed in HEK293 cells by electrophysiology assay; type: cell-based
[49] = target: Sodium channel protein type 10 subunit alpha (Homo sapiens, UniProt Q9Y5Y9); test: Inhibition of human Nav1.8 expressed in HEK293 cells by electrophysiology assay; type: cell-based
Homo sapiens [50] = species: Homo sapiens; test: Selectivity index, ratio of IC50 for inhibition of human Nav1.8 expressed in HEK293 cells by electrophysiology assay to IC50 for inhibition of human Nav1.7 expressed in HEK293 cells by electrophysiology assay; type: cell-based

T1 sequence (Q14524 whole entry): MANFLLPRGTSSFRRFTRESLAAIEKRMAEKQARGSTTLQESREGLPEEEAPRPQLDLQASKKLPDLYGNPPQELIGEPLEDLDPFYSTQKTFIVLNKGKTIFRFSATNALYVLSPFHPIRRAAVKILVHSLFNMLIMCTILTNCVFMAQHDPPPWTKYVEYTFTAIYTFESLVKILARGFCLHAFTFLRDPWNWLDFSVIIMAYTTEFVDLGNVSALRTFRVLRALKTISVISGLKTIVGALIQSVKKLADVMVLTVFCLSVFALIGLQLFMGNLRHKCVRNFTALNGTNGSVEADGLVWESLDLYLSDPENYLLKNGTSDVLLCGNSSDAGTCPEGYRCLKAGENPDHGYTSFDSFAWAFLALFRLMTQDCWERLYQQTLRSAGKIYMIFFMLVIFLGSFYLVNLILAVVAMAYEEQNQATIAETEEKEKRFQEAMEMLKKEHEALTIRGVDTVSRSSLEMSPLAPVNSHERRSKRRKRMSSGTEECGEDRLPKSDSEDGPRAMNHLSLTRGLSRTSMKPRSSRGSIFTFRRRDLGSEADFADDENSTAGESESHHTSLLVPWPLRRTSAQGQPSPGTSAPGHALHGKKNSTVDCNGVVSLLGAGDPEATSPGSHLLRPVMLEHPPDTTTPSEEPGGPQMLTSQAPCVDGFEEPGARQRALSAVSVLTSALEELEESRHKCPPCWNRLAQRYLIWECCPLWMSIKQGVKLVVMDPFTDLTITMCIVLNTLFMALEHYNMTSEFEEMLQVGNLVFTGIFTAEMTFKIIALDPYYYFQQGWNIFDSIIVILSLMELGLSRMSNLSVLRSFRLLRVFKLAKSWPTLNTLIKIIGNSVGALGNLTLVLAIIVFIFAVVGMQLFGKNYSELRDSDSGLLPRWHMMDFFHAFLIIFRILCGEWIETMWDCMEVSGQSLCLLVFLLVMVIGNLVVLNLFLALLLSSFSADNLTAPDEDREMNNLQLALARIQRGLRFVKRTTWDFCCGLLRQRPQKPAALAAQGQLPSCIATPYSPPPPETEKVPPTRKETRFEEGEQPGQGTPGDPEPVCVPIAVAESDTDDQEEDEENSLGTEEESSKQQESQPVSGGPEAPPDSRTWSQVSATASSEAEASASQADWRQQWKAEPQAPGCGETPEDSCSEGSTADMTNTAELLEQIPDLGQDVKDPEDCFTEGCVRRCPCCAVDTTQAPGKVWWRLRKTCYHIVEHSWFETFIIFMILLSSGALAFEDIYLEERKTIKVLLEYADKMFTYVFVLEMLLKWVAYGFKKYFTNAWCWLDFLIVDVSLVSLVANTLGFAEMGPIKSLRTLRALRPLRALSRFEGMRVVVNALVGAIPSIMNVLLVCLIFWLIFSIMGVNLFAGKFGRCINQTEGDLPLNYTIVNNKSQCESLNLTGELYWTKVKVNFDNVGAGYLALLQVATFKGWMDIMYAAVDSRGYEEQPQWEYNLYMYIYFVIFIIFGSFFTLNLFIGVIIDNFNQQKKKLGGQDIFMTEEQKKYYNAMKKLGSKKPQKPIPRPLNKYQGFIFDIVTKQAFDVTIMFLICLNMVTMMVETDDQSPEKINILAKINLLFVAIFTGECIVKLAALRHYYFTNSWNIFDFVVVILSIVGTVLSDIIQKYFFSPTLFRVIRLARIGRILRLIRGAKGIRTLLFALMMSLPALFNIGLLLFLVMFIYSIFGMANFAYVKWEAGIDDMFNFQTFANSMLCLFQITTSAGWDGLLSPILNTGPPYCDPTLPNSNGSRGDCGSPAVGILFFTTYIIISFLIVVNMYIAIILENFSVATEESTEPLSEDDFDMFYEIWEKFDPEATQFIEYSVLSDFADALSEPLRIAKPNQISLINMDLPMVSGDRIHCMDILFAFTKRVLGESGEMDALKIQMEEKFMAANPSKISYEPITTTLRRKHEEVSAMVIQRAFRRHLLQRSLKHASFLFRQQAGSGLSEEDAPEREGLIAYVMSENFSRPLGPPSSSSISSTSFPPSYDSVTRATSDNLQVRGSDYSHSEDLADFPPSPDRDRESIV
T5 sequence (Q9UQD0 whole entry): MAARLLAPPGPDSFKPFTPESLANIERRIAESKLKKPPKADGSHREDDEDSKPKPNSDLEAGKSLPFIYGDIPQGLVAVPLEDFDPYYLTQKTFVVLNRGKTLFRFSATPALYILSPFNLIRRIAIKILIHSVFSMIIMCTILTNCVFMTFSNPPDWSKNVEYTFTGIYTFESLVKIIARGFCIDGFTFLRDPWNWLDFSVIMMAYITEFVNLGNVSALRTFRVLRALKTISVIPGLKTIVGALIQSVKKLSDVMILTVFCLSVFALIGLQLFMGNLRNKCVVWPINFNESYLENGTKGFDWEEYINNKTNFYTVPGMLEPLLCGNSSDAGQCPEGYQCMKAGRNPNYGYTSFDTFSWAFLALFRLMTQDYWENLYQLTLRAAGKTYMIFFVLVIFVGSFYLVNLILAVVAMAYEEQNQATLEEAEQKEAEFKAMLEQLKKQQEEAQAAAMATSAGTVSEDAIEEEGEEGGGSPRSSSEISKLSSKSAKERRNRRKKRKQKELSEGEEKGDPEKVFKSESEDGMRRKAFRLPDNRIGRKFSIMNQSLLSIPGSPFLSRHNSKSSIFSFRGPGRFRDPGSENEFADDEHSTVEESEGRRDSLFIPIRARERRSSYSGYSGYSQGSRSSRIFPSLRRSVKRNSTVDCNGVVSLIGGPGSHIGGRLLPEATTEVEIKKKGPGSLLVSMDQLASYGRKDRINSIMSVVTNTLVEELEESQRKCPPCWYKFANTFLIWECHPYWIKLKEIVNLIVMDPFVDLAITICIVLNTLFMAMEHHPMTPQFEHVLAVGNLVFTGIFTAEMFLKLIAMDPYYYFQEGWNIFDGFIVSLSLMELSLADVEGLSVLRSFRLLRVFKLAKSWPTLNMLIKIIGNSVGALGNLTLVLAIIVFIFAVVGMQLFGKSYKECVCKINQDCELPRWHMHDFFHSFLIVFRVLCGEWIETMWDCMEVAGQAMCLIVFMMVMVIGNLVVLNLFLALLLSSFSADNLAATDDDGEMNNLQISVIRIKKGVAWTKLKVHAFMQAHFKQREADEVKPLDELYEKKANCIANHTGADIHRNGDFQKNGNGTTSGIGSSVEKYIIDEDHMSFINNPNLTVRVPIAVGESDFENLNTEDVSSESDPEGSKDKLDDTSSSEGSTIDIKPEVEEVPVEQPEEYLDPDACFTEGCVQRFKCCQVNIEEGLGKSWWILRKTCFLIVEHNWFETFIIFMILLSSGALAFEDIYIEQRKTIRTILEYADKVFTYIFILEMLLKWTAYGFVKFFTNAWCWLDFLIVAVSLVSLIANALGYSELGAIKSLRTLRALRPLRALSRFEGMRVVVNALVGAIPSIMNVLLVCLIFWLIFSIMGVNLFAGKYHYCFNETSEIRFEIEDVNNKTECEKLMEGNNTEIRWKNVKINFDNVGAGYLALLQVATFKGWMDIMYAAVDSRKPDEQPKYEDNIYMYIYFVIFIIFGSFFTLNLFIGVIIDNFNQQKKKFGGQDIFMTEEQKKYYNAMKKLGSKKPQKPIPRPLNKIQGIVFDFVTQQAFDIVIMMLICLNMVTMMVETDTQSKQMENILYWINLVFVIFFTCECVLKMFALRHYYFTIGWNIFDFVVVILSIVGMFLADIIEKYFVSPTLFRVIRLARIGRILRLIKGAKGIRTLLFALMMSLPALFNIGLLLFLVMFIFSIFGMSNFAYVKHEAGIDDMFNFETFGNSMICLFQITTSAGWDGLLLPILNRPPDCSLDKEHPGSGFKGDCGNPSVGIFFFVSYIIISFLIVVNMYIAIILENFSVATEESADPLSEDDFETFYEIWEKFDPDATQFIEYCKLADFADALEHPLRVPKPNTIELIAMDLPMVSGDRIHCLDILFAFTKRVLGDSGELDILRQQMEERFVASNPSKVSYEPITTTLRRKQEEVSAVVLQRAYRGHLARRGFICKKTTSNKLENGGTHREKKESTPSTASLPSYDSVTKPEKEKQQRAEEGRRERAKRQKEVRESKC

Cc1nn([C@@H]2CCN([C@H](C)c3cc(Cl)cc(Cl)c3)C2)c2cc(F)c(C(=O)NS(=O)(=O)C3CC3)cc12
Ratio [1]: 3.3 | Ratio [2]: 6.2 | Ratio Ki (Homo sapiens [3]): 28 | Ratio Ki (Homo sapiens [4]): 5 | Ratio Ki (Homo sapiens [5]): 21 | Ratio [6]: 16 | Ratio Ki (Homo sapiens [7]): 2.1 | Kd [8]: 22000 nM | Ratio [9]: 25 | Ratio Ki (Homo sapiens [10]): 6.4 | Ratio [11]: 5.7 | Kd [12]: 460 nM | Kd [13]: 140 nM | Kd [14]: 110 nM | Ratio [15]: 5 | concentration [16]: 67.9 µM | concentration [17]: 49.3 µM | Kd [18]: 140 nM | Ratio [19]: 2.3 | Ratio [20]: 34 | concentration [21]: 49.3 µM | Kd [22]: 620 nM | fraction unbound [23]: 0.007 | concentration [24]: 31.1 µM | Ratio Ki (Homo sapiens [25]): 6.4 | concentration [26]: 49.3 µM | Kd [27]: 47 nM | Kd [28]: 14 nM | Ratio [29]: 25 | Ratio [30]: 25

CSCC[C@@H]1NC(=O)CNC(=O)[C@H](CCC(=O)O)NC(=O)[C@@H]2CSSC[C@H](NC(=O)[C@@H](N)Cc3ccc(O)cc3)C(=O)N[C@@H](CCC(N)=O)C(=O)N[C@@H](CCCCN)C(=O)N[C@@H](Cc3c[nH]c4ccccc34)C(=O)N[C@@H](CCSC)C(=O)N[C@@H](Cc3c[nH]c4ccccc34)C(=O)N[C@@H]([C@@H](C)O)C(=O)N[C@H]3CSSC[C@H](NC(=O)[C@H](C(C)C)NC1=O)C(=O)N[C@@H](CCCNC(=N)N)C(=O)N[C@@H](CC(C)C)C(=O)N[C@@H](Cc1c[nH]c4ccccc14)C(=O)N[C@H](C(=O)N[C@@H](CCCCN)C(=O)N[C@@H](CCCCN)C(=O)N[C@@H](CCCCN)C(=O)N[C@@H](CC(C)C)C(=O)N[C@@H](Cc1c[nH]c4ccccc14)C(=O)O)CSSC[C@H](NC(=O)[C@H](CCCCN)NC(=O)[C@H](CCCNC(=N)N)NC(=O)[C@H](CCC(=O)O)NC(=O)[C@H](CO)NC(=O)[C@H](CC(=O)O)NC3=O)C(=O)N2
IC50 [31]: 79 nM | IC50 [32]: 25 nM | IC50 [33]: 32 nM | IC50 [34]: 79 nM | IC50 [35]: 400 nM | IC50 [36]: 16 nM | ED (Rattus norvegicus [37]): 2 µg | ED (Rattus norvegicus [38]): 2 µg | ED (Rattus norvegicus [39]): 0.01 mg/kg | ED (Rattus norvegicus [40]): 0.1 mg/kg

CSCC[C@@H]1NC(=O)[C@H](Cc2ccc(O)cc2)NC(=O)[C@H](CCCNC(=N)N)NC(=O)[C@@H](NC(=O)[C@@H](N)CC(=O)O)CSSC[C@@H]2NC(=O)[C@@H]3CSSC[C@@H](C(=O)N[C@@H](C)C(=O)N[C@@H](Cc4c[nH]c5ccccc45)C(=O)N[C@@H](CC(=O)O)C(=O)N[C@@H](Cc4ccccc4)C(=O)N[C@H](C(=O)N[C@@H](Cc4ccccc4)C(=O)N[C@H](C(=O)O)[C@@H](C)O)[C@@H](C)O)NC(=O)[C@H](Cc4ccc(O)cc4)NC(=O)[C@H](CCCCN)NC(=O)[C@H](CCSC)NC(=O)[C@H](CCCCN)NC(=O)[C@H](CCCNC(=N)N)NC(=O)[C@H](CCCCN)NC(=O)[C@H](CSSC[C@H](NC(=O)[C@H](CC(=O)O)NC(=O)CNC(=O)[C@H](Cc4ccccc4)NC1=O)C(=O)N[C@@H](CCC(=O)O)C(=O)N[C@@H](CCCCN)C(=O)N[C@@H](CC(=O)O)C(=O)N[C@@H](CCC(=O)O)C(=O)N[C@@H](CC(=O)O)C(=O)N3)NC(=O)CNC(=O)[C@H](CC(C)C)NC(=O)[C@H](Cc1cnc[nH]1)NC(=O)[C@H](CCCCN)NC2=O
IC50 [31]: 140 nM | IC50 [34]: 120 nM | IC50 [41]: 1.5 nM

CC1(COc2cc(F)c(C(=O)NS(=O)(=O)C3CC3)cc2C2CC2)CCC2(CC1)CC2
Ratio IC50 (Homo sapiens [42]): 10 | Ratio IC50 (Homo sapiens [43]): 3.3 | Ratio IC50 (Homo sapiens [44]): 63 | Ratio IC50 (Homo sapiens [45]): 83 | Ratio [46]: 5.2 | Ratio [47]: 22

O=C1N(Cc2ccc(C(F)(F)F)o2)c2ccccc2[C@]12COc1cc3c(cc12)OCO3 [FUNAPIDE]
IC50 [48]: 54 nM | IC50 [33]: 170 nM | IC50 [49]: 4800 nM | IC50 [34]: 600 nM | Ratio IC50 (Homo sapiens [43]): 11 | Ratio IC50 (Homo sapiens [44]): 3.1 | Ratio IC50 (Homo sapiens [45]): 1.5 | IC50 [35]: 84 nM | Ratio IC50 (Homo sapiens [50]): 89
